Reference: US9937171B2, “Methods of blocking the CXCR-4/SDF-1 signaling pathway with inhibitors of bruton's tyrosine kinase” (Acerta Pharma B.V., priority 2014, dated 2018)

Key:
[1] = tested on: CXCR4 surface expression in B-CLL cells; test: CXCR4 surface expression in B-CLL cells of CLL patients after administration; format: in vivo, human; settings: CLL patients with 17p deletion, blood 4, 24, 48 hours after day 3 dose
Protocol: Drug was given for 3 days. Blood was drawn predose, and then 4, 24, and 48 hours after the day 3 dose.

[2] = tested on: p-Btk(Y223) in CD20+ B cells; test: Phosphoflow cytometry of p-Btk(Y223) in CD20+ B cell gate of healthy PBMCs; format: cell-based; settings: 2 hours incubation, anti-IgM or anti-IgM+SDF-1 for 5 minutes, low nM concentrations, FIG. 1
Protocol: (§1) Cells were then analyzed by phosphoflow cytometry and p-Btk(Y223) was measured in the CD20+ B cell gate and the CD14^+ monocyte gate separately. In B cells, BTK phosphorylation in anti-IgM stimulated B cells is increased with the addition of SDF-1 (CXCL-12) in the “No drug” condition. […] In monocytes, BTK phosphorylation is only observed when SDF-1 is present.

[3] = tested on: p-Btk(Y223) in CD14+ monocytes; test: Phosphoflow cytometry of p-Btk(Y223) in CD14+ monocyte gate of healthy PBMCs; format: cell-based; settings: SDF-1 stimulation, FIG. 2
Protocol: as §1

RANK MDA-MB231 = RANK MDA-MB231 mouse experiment (bone metastases, bioluminescence imaging); format: in vivo; settings: ~10 and ~50 mg/kg/day PO, 2 weeks of treatment, FIG. 9
Excerpt: FIG. 9 illustrates the results of a RANK MDA-MB231 mouse experiment. […] The primary endpoint was bioluminescence imaging (weekly). The secondary endpoints were serum CTx (bone resorption) and serum P1NP (bone formation).

SMILES: CC#CC(=O)N1CCC[C@H]1c1nc(-c2ccc(C(=O)Nc3ccccn3)cc2)c2c(N)nccn12 [Formula (II), (S)-4-(8-amino-3-(1-(but-2-ynoyl)pyrrolidin-2-yl)imidazo[1,5-a]pyrazin-1-yl)-N-(pyridin-2-yl)benzamide]
- CXCR4 surface expression in B-CLL cells compared to predose ([1]; 100 mg BID for 3 days, FIG. 3): reduced
- CXCR4 surface expression in B-CLL cells compared to predose ([1]; 200 mg QD for 3 days, FIG. 4): reduced
- BTK phosphorylation, p-Btk(Y223), in B cells [2]: inhibited
- SDF-1/CXCR4 signaling (SDF-1 induced p-Btk) in monocytes [3]: inhibits
- Bone metastases (bioluminescence imaging) (RANK MDA-MB231): dose-response reduction
